Laboratory results reported in PMC7613620, “Reaction hijacking of tyrosine tRNA synthetase as a whole-of-life-cycle antimalarial strategy” (Science (New York, N.Y.), 2022).

How the values were obtained:
[1] = system: aptamer-regulatable control line; assay: Growth inhibition of aptamer-regulatable control line (luciferase, 72 h); format: cell-based, Plasmodium falciparum
Procedure: 677 parasites using CRISPR-Cas9 and homology-driven repair (55, 56). A line harbourbing an aptamer-
678 regulatable fluorescent protein (eYFP) integrated in the cg6 locus is used as the control (55). […]
696 Stock solutions of ML901, DHA or borrelidin (Cayman Chemicals) were dispensed into 96-well U-bottom
697 BD Falcon™ plates and serially diluted in complete medium to yield final concentrations ranging from 20-
698 0.08 nM. Synchronous ring-stage YRScyt conditional knockdown line and the aptamer-regulatable control
699 line in varying aTc concentrations (high = 50 or 500 nM, low = 1 nM, and no aTc) were distributed into
(§1) 700 the drug plate. Lowest drug treatment and a lethal dose of chloroquine (200 nM) served as reference
(§2) 701 controls. Growth inhibition was analysed after 72 h using the Renilla-Glo(R) Luciferase Assay System (ref
(§3) 702 no E2750 Promega) and the GloMax® Discover Multimode Microplate Reader (Promega), and IC50 values
(§4) 703 were obtained from corrected dose-response curves using GraphPad Prism (version 8; GraphPad Software). […]
706 CRISPR/Cas9 was used to generate parasites encoding the S234C mutation in exon 2 of PfYRS, as shown
707 in Suppl Figure 6. Two guide RNAs (gRNA1: […] and gRNA2:
708 […]) were selected using Benchling (benchling.com), and cloned into the
709 pDC2-coCas9-gRNA plasmid essentially as described previously (58). A donor template of 645 bp, […]

HepG2 = HepG2 Cell Titer-GLO luminescent cell viability assay; format: cell-based; conditions: Homo sapiens, HepG2, 72 h, read-out: HepG2 (luminescence) IC50(72h)
Procedure: 561 Mammalian cell culture experiments
562 The HepG2 (Human hepatocyte carcinoma) cell line was procured from ATCC (American Type
563 Culture Collection, Manassas, USA; HB-8065) and viability assessed using Cell Titer-GLO luminescent
564 cell viability assay reagents (Promega, catalogue number: G7570) (47, 48). For the assay, 2000 cells/well
565 were plated in 384-well plates 24 h prior to the experiment and incubated at 37°C in a CO2 incubator. The
566 medium was removed and cells were treated with fresh medium containing either vehicle (0.5% DMSO)
567 or serially diluted test compounds or doxorubicin (1.3 nM to 25 µM) in a final volume of 50 µl/well and
568 further incubated for 72 h at 37°C in a CO2 incubator.
569 were treated with 5 µl of 1% Triton X-100 (final assay conc. 0.1%). Following incubation, 25 µl of medium
570 was discarded and 25 µl of Cell Titer-GLO reagent was added to each well and the plate was kept on a plate
571 shaker for 15 min at 25°C with shaking at 300 rpm. Luminescence signals were measured in a Spectramax
572 M5 reader (Molecular Devices). […]
585 37°C humidified incubator as adherent semi-confluent monolayers in complete Dulbecco’s Modified Eagle
586 Media (c-DMEM). DMEM (Gibco™, Thermo Fisher Scientific, Australia) was supplemented with 10%

[2] = molecular target: SUMO-activating enzyme (SAE) (Homo sapiens, UniProt Q9UBT2); assay: biochemical; conditions: read-out: SAE IC50 HTRF
From the text: 592 E1-E2 Transthiolation Assays
593 An Homogeneous Time-Resolved Fluorescence (HTRF) enzyme assay was employed to evaluate
594 compound activity against ATG7 as previously described (11). In this assay, a Flag-tagged ATG8 homolog
595 (GABA type A receptor-associated protein; GABARAP) is activated by ATG7 and then transthiolated to a
596 GST-tagged E2 (ATG3). The product of the enzyme reaction, Flag-GABARAP-ATG3-GST, is quantified
597 by measuring FRET between Europium-Cryptate labelled monoclonal anti-Flag M2 (CisBio International,
598 Cat# 61FG2KLB) and PHYCOLINK goat anti-GST allophycocyanin (Prozyme, PJ252p1). The activation
599 and transthiolation of ubiquitin by Ubiquitin Activating Enzyme, activation and transthiolation of NEDD8
600 by NEDD8 Activating Enzyme. […]
606 Compounds were incubated with mature stage V gametocytes ([…], kind gift from Professor Chris Janse
607 at Leiden University Medical Center (LUMC), the Netherlands) for 48 hours in 384 well plates before
608 gamete formation was triggered by a drop in temperature and addition of xanthurenic acid. […]
611 Multiple data sets using different gametocyte cultures were collected on each of two separate days.
613 Activity against exoerythrocytic stages
614 Primary human hepatocytes (H1500.H15B+ Lot No. HC10-10 Cryopreserved human hepatocytes) […]

P. falciparum Dd2 = assay: 72-h sensitivity of wildtype Dd2 parent line; format: cell-based; conditions: Plasmodium falciparum, 72-h exposure
Procedure: as §1, §2, §3, §4
729 Cam 3.II_Rev (25) trophozoite-infected RBCs (25-30 h p.i.) were incubated with inhibitor for 3 h at 10%
730 hematocrit and 5% parasitemia. The RBC pellet was washed 3 x in PBS + cOmplete. Cells were centrifuged
731 at 380 x g for 5 min and the pelleted cells lysed by resuspension in PBS + 0.05% saponin for 5 min on ice.

Sequence of SUMO-activating enzyme (SAE) (Q9UBT2 whole entry): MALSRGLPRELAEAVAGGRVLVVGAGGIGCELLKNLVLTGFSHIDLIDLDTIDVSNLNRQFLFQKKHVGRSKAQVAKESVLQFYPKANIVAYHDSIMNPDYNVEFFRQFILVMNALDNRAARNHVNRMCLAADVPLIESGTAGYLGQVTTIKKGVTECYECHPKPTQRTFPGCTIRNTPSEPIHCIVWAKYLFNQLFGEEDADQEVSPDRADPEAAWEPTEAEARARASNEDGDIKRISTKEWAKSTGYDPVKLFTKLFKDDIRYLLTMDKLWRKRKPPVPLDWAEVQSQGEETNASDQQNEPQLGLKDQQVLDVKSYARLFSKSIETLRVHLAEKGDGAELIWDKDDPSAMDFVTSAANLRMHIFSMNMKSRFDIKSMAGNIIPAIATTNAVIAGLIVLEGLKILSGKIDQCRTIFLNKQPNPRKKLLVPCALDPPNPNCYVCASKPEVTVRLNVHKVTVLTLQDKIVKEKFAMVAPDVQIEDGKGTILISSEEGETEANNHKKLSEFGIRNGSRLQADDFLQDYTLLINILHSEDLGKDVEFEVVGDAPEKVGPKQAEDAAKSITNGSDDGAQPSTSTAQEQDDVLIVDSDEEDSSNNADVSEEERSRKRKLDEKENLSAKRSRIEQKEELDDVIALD
Sequence of SUMO-activating enzyme (SAE) (Q9UBE0 whole entry partner): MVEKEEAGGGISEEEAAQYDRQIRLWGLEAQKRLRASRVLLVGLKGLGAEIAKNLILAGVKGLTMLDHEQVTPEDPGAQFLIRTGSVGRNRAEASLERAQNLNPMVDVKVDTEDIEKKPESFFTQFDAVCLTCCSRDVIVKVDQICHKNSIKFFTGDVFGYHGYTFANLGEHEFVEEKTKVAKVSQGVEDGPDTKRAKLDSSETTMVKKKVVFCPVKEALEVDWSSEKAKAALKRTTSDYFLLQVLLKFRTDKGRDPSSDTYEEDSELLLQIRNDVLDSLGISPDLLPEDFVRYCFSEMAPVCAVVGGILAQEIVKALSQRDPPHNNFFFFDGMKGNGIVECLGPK

Q: Which results are given for `Nc1ncnc2c1c(OC(F)F)nn2[C@@H]1O[C@H](COS(N)(=O)=O)[C@@H](O)[C@H]1O` [ML901]?
A: Fold change in IC50 (high aTc/ no aTc), control line [1]: no change; IC50 ([1]; Plasmodium falciparum, read-out: IC50 against control line): 2.4 ± 0.2 nM; IC50 (HepG2): 1630 nM; IC50 [2]: > 1000 nM; IC50 (P. falciparum Dd2): 2.2 ± 0.3 nM
